Laboratory results: PubChem BioAssay (NCI)
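Exposure lasted 48 hours, with cells grown in 96-well plates and compounds tested at five concentrations. TGI is the concentration that stops growth completely.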

Legend:
Assay in all cases: growth of human tumour cells (NCI), 48 h
A549 NSCLC = system: A549 NSCLC
BT-549 breast = system: BT-549 breast
KM12 colon = system: KM12 colon
MDA-N = system: MDA-N
MOLT-4 leukemia = system: MOLT-4 leukemia
NCI-H460 lung = system: NCI-H460 lung
NCI/ADR-RES ovarian = system: NCI/ADR-RES ovarian
OVCAR-4 ovarian = system: OVCAR-4 ovarian
PC-3 prostate = system: PC-3 prostate
SF-268 CNS = system: SF-268 CNS
SK-MEL-28 melanoma = system: SK-MEL-28 melanoma
SK-MEL-5 melanoma = system: SK-MEL-5 melanoma
SK-OV-3 ovarian = system: SK-OV-3 ovarian
SR leukemia = system: SR leukemia
U251 CNS = system: U251 CNS
UACC-62 melanoma = system: UACC-62 melanoma
UO-31 renal = system: UO-31 renal
NCI-H226 lung = system: NCI-H226 lung
HL-60(TB) leukemia = system: HL-60(TB) leukemia

Compound	TGI (A549 NSCLC) [µM]	TGI (BT-549 breast) [µM]	TGI (KM12 colon) [µM]	TGI (MDA-N) [µM]	TGI (MOLT-4 leukemia) [µM]	TGI (NCI-H460 lung) [µM]	TGI (NCI/ADR-RES ovarian) [µM]	TGI (OVCAR-4 ovarian) [µM]	TGI (PC-3 prostate) [µM]	TGI (SF-268 CNS) [µM]	TGI (SK-MEL-28 melanoma) [µM]	TGI (SK-MEL-5 melanoma) [µM]	TGI (SK-OV-3 ovarian) [µM]	TGI (SR leukemia) [µM]	TGI (U251 CNS) [µM]	TGI (UACC-62 melanoma) [µM]	TGI (UO-31 renal) [µM]	TGI (NCI-H226 lung) [µM]	TGI (HL-60(TB) leukemia) [µM]
COC1=N[C@H](C(C)C)C(OC)=N[C@H]1Cc1ccc(C[C@@H]2N=C(OC)[C@@H](C(C)C)N=C2OC)s1	> 100	> 100	> 100	> 100	41	> 100	> 100	> 100	69.2	> 100	> 100	47.8	> 100	51	70.5	> 100	> 100		
COC(=O)CCC1=NCC(C)(C)O1	> 10	> 10	> 10	> 10	> 10	> 10	> 10	> 10	> 10	> 10	> 10	> 10	> 10	> 10	> 10	> 10	> 10	> 10	
C[C@@H]1[C@H](O)CC2=C(CC[C@@H](O)C2(C)C)[C@@]1(CO)CCc1ccoc1	> 50	> 50	> 50	> 50	> 50	> 50	> 50	> 50	> 50		> 50	> 50	> 50	> 50	> 50	> 50	> 50	> 50	> 50
Cn1nc2ccc([N+](=O)[O-])cc2[n+]1[O-]	> 100	> 100	> 100	> 100	> 100	> 100	> 100	> 100	> 100			> 100	> 100	> 100	> 100	> 100	> 100	> 100	
C[C@@H](CC(=O)O)OC1OC(COC(=O)C(C)(C)C)C(OC(=O)C(C)(C)C)C(OC(=O)C(C)(C)C)C1OC(=O)C(C)(C)C (stereo partly specified)	> 100	> 100	> 100	> 100	81.3	75.7	> 100		> 100	> 100	> 100	98.4	> 100		> 100	> 100		> 100	46.3
CC1=NN(c2nc(N)nc(CSc3cc(Cl)c(C)cc3S(N)(=O)=O)n2)C(C)(C)C1	> 10	> 10	> 10	> 10	> 10	> 10	> 10	> 10	> 10	> 10	> 10	> 10	> 10		> 10	> 10	0.953	> 10	> 10
COc1ccc2c(c1)c1c(n2CCN2CCOCC2)-c2cccc(OC)c2CC1	> 100	> 100	53.1	> 100	76.7	> 100	> 100	> 100	> 100	> 100	> 100	> 100	> 100	35.3	> 100	> 100	> 100	52.9	
CC(=O)N1c2ccccc2C2=NN(C)C(=N)SC21 (stereo unspecified)	> 100	> 100	> 100	> 100	> 100	> 100	> 100	> 100	> 100	> 100	> 100			> 100	> 100		> 100	> 100	> 100
COC(=O)c1cc(OS(=O)(=O)C(F)(F)F)c(=O)n2c1CCCC2	> 100	> 100	> 100	> 100	> 100		> 100	> 100	> 100	> 100	> 100	> 100	> 100		> 100	> 100	> 100	> 100	> 100
Cn1c2c(c3ccccc31)CCN=C2C1CCCOC1=O (stereo unspecified)	> 100	> 100	> 100	> 100		> 100	> 100	> 100	> 100	> 100	> 100	> 100		> 100	> 100	> 100	> 100	> 100	> 100
CC(C)=NNc1snnc1C(N)=O	> 100	> 100	> 100	> 100	> 100		> 100		> 100	> 100	> 100	> 100	> 100		> 100	> 100	> 100	> 100	> 100
Cc1c[nH]c(C(=O)O)c1-c1cccn1-c1ccc(Cl)cc1[N+](=O)[O-]	> 100	> 100	> 100	> 100	> 100	> 100	> 100	> 100	> 100	> 100	> 100	> 100	> 100	> 100	> 100	> 100	> 100	> 100	
O=c1[nH]nc(-c2ccccc2)n1/N=C/c1ccco1	> 100	94.2	> 100	> 100	> 100	> 100	> 100	> 100	> 100	> 100	> 100	> 100	> 100	> 100	> 100	> 100	> 100		> 100
COc1ccc2c(c1)CC1COc3cc(OC)ccc3C1O2 (stereo unspecified)	> 100	> 100	> 100	> 100	> 100		> 100		> 100	> 100		> 100	> 100	> 100	> 100	> 100	> 100	> 100	
O=C1CNC(=O)/C(=C/c2c[nH]c3ccccc23)N1	> 100	> 100	> 100	> 100	> 100	> 100	> 100	> 100	> 100	> 100	> 100	> 100	> 100			> 100	> 100	> 100	> 100
CN(C)CCNCc1ccc2c(-c3ccccc3)nc3cc(Cl)c(Cl)cc3n12	24.3	30.9	24.7	23.4	21.6	23.9	31.4	26.7	27.3	29.7	14.1	16.4	17.4		22.7	17.7	14.7	37.5	11.6
Cc1cc(C)c2c(n1)S(=O)(=O)N(CCCN1CCN(c3cccc(Cl)c3)CC1)/C(=C(\O)c1ccccc1)C2=O	> 100	> 100	> 100	> 100	44.4	52.5	> 100	88.8	> 100	> 100	> 100	60.2	> 100	68.9	> 100	> 100	74		71
N#CCCN(CCC#N)c1ccc(C(N=Nc2ccc(Cl)cc2)=Nc2ccccc2)cc1	29.1	16.6	31.3	22.8	89.4	22.5	24.2	26	25.5	27.1	30	5.13	27.1	> 100	32.4	21.8	21.3	31.9	
Cc1ccc(/C=C/C(=N/NC(=O)N/N=C(/C=C/c2ccc(C)cc2)C(C)C)C(C)C)cc1	> 10	> 10	> 10	> 10	> 10	> 10	> 10	2.88	> 10	> 10				> 10	> 10		> 10	> 10	> 10
CC(=O)NC1C(OC(C)C(=O)NC(C(=O)NC(CCC(=O)NCCCNC2c3ccccc3Nc3cccc([N+](=O)[O-])c32)C(N)=O)C(C)C)C(O)C(CO)OC1(C)OCc1ccccc1 (stereo unspecified)	1.94	4.1	3.48	4.78	2.6	0.405	4.76	3.64	3.33	3.3		0.405	3.33	0.634	3.22	2.1	2.73	2.95	
